Assay results taken from patent publication US20100279984A1, “PHARMACEUTICAL COMPOSITIONS CONTAINING BENFOTIAMINE AND ONE OR ONE MORE PHARMACEUTICALLY ACTIVE AGENTS FOR THE TREATMENT OF PAIN CONDITIONS OF NEUROPATHIC ORIGIN” (Merck Patent GmbH, priority 2007, published 2010).

What was measured:
[1] = system: righting, stepping, corneal and pinna reflexes; assay: Side effect testing: righting, stepping, corneal and pinna reflexes before and after drug treatment; type: in vivo, female Wistar rats
Method: (§1) Drugs: Gabapentin was purchased from Research Biochemicals International (Natick, Mass., USA). Benfotiamine was purchased from Sigma. Gabapentin and benfotiamine were dissolved in saline and given at a volume ratio of 4 ml/kg. Study design: Rats received the oral administration of saline or increasing doses of gabapentin (30-300 mg/kg), benfotiamine (75-300 mg/kg) or the combination of gabapentin and benfotiamine 60 min before evaluation of threshold in spinal nerve injured rats. Observer was unaware of the treatment in each animal. Rats in all groups were tested for possible side effects such as reduction of righting, stepping, corneal and pinna reflexes before and after drug treatment.

[2] = system: tactile allodynia induced by ligation of L5 and L6 spinal nerves; assay: Antiallodynic activity: tactile allodynia (von Frey paw withdrawal threshold) in L5/L6 spinal nerve ligated rats (Kim and Chung model); type: in vivo, female Wistar rats; settings: for ED30 (dose producing 30% of antiallodynia): drug alone, 60 min before threshold evaluation, ±SEM; for ED30 (dose producing 30% of antiallodynia) / reduction of tactile allodynia (in words): spinal nerve ligated rats; for reduction of tactile allodynia (in words): P<0.05
Method: The purpose of this study was to assess the possible synergistic interaction between gabapentin and benfotiamine in a neuropathic pain model in the rat (Kim, S. H. and Chung, J. M.: Pain 50: 355-363 (1992)). In addition, the possible synergistic interaction between gabapentin and benfotiamine was also assessed in rats with neuropathic pain. Neuropathic pain was induced by ligation of the left L5 and L6 spinal nerves of female Wistar rats. Tactile allodynia was determined by measuring paw withdrawal in response to probing with a series of calibrated von Frey filaments.
Female Wistar rats aged 6-7 weeks (weight range, 120-140 g) from our own breeding facilities were used in this study. Animals had free access to food and drinking water before experiments. Efforts were made to minimize animal suffering and to reduce the number of animals used. All experiments followed the Guidelines on Ethical Standards for Investigation of Experimental Pain in Animals (Zimmermann. M.: Pain 16: 109-110 (1983)). Additionally, the study was approved by the Institutional Animal Care and Use Committee (Centro de Investigacion y de Estudios Avanzados del Instituto Politecnico Nacional, Mexico, D.F., Mexico).
Evaluation of antiallodynic activity: Rats were prepared according to the method of Kim and Chung (Kim, S. H. and Chung, J. M.: Pain 50: 355-363 (1992)). Animals were anesthetized with a mixture of ketamine/xylazine (45-12 mg/kg, i.p.). After surgical preparation and exposure of the dorsal vertebral column, the L5 and L6 spinal nerves were exposed and tightly ligated with 6-0 silk suture distal to the dorsal root ganglion. For sham operated rats, the nerves were exposed but not ligated. The incisions were closed, and the animals were allowed to recover for 15 days. […] Tactile allodynia was determined by measuring paw withdrawal in response to probing with a series of calibrated fine filaments (von Frey filaments). The strength of the von Frey stimuli range from 0.4 to 15 g. Withdrawal thresholds were determined by increasing and decreasing stimulus strength eliciting paw withdrawal (Chaplan, S. R., et al.: J. Neurosci Meth. 53: 55-63 (1994)). All nerve-ligated rats were verified to be allodynic (responding to a stimulus of less than 4 g).
as §1
Data analysis and statistics: Curves were constructed plotting the threshold for paw withdrawal as a function of time. Threshold for paw withdrawal was also expressed as the % of antiallodynia. % antiallodynia was calculated with the following equation: % antiallodynia=((area under the withdrawal theshold against time curve (AUC) of the treatment−AUC saline)/(AUC sham−AUC saline)×100. The dose-response curves were fitted using least-squares linear regression and ED30 and its standard error (SEM) were calculated according to the method described by Tallarida (Tallarida, R. J.: Drug Synergism and Dose-Effect Data Analysis. 1st Ed., New York, Chapman and Hall/CRC, pp 1-72 (2000)).
For evaluation of the interaction between gabapentin and benfotiamine, isobolograms were constructed using ED30 values obtained when the drugs were administered alone or combined. We used ED30 instead of ED50 values because benfotiamine was not able to reach more than 30% of antiallodynia in the model. […]

| Structure (SMILES) | effect on assessed reflexes (righting, stepping, corneal, pinna) ([1]; rat, in vivo, po) | antiallodynic effect compared with thiamine (in words) ([2]; oral administration, FIG. 5) | ED30 (dose producing 30% of antiallodynia) ([2]; oral administration) | reduction of tactile allodynia (in words) ([2]; oral administration) | % of antiallodynia reached in the model ([2]; oral benfotiamine 75-300 mg/kg, reason for using ED30 instead of ED50) | effect on assessed reflexes (righting, stepping, corneal, pinna) ([1]; oral, at the selected doses) | maximal antiallodynic effect ([2]; oral, at 300 mg/kg) |
| --- | --- | --- | --- | --- | --- | --- | --- |
| C/C(=C(\CCOP(=O)(O)O)SC(=O)c1ccccc1)N(C=O)Cc1cnc(C)nc1N [Benfotiamine] | no evidence of modification of assessed reflexes | higher antiallodynic effect than thiamine | 47.4 ± 10 mg/kg | modest dose-dependent reduction | ≤ 30% |  |  |
| NCC1(CC(=O)O)CCCCC1 [Gabapentin] |  |  | 16.6 ± 2.6 mg/kg | reduced in a dose-dependent manner |  | No reduction in the assessed reflexes | 100% |
